Laboratory results as given in article PMC9143880, “Improving Antimicrobial Activity and Physico-Chemical Properties by Isosteric Replacement of 2-Aminothiazole with 2-Aminooxazole” (Pharmaceuticals, 2022).
≈ marks a conversion by molar mass, not a printed value. Like-named read-outs stand apart in the source and are kept apart here.

Legend:
[1] = RP-UHPLC lipophilicity parameter log k’w; assay type: physicochemical; settings: for log k’w: RP-UHPLC, acetonitrile/water, log k extrapolated to 0% acetonitrile; for logkw: experimental lipophilicity parameter
Source text: Lipophilicity and water solubility of the drug candidates are important parameters as they are often directly related to their ADME properties in the organism. Lipophilicity is usually expressed as the logarithm of the partition coefficient in n-octanol/water (log P). Due to its laborious determination, especially in the HTS screening, other experimental methods such as RP-HPLC log k’w or purely computational approaches such as Clog P were proposed and have been established as reasonable estimators of true lipophilicity. To investigate the changes in lipophilicity upon introduction of oxazole in the title compounds, we determined the log k’w of all derivatives and compared respective values among the pairs.
The log k of the synthesized compounds was measured using the same instrument (single measurement per concentration), software, and column as was used in the purity evaluation. Working solutions were diluted as described above for purity determination. The log k parameter was calculated after the UHPLC measurements using isocratic mode with mobile phase acetonitrile (B)/water (A) in a set of concentrations of 40, 45, 50% and 20, 30, 40% B for subtype I and subtype II, respectively.

[2] = test system: HepG2 cells; test: HepG2 cytotoxicity screening (CellTiter 96); assay type: cell-based, human; settings: for IC50: Homo sapiens, HepG2, 24 h, 24 h incubation, CellTiter 96, * above highest tested concentration, ** limited by insolubility in medium; for SI: SI = IC50 (µM) HepG2 / MICH37Ra (µM)
[3] = test system: Mycobacterium tuberculosis H37Ra ITM-M006710 (ATCC 9431); test: Antimycobacterial MIC, microdilution broth / Alamar Blue (resazurin); assay type: cell-based; settings: for MIC: Mycobacterium tuberculosis
[4] = test system: M. smegmatis DSM 43465 (ATCC 607); test: Antimycobacterial MIC, microdilution broth / resazurin; assay type: cell-based; settings: Mycolicibacterium smegmatis; resazurin after 48 h; read-out: MIC M. smegmatis
[5] = test system: M. aurum DSM 43999 (ATCC 23366); test: as above; assay type: cell-based; settings: Mycolicibacterium aurum; resazurin after 72 h; read-out: MIC M. aurum
[6] = test system: M. avium DSM 44156 (ATCC 25291); test: as above; assay type: cell-based, Mycobacterium avium; settings: Mycobacterium avium; resazurin after 96 h; read-out: MIC M. avium
[7] = test system: M. kansasii DSM 44162 (ATCC 12478); test: as above; assay type: cell-based; settings: Mycobacterium kansasii, read-out: MIC M. kansasii
[8] = test system: Staphylococcus aureus subsp. aureus CCM 4223 (ATCC 29213); test: Antibacterial microdilution broth (EUCAST); assay type: cell-based; settings: 24h incubation; for MIC: Staphylococcus aureus, read-out: MIC SA
[9] = test system: Staphylococcus aureus subsp. aureus (MRSA) CCM 4750 (ATCC 43300); test: Antibacterial microdilution broth (EUCAST); assay type: cell-based; settings: 24h incubation; for MIC: Staphylococcus aureus, read-out: MIC MRSA
[10] = test system: Staphylococcus epidermidis CCM 4418 (ATCC 12228); test: Antibacterial microdilution broth (EUCAST); assay type: cell-based; settings: 24h incubation; for MIC: Staphylococcus epidermidis, read-out: MIC SE
[11] = test system: Enterococcus faecalis CCM 4224 (ATCC 29212); test: Antibacterial microdilution broth (EUCAST); assay type: cell-based; settings: 24h incubation; for MIC: Enterococcus faecalis, read-out: MIC EF
[12] = test system: Escherichia coli CCM 3954 (ATCC 25922); test: Antibacterial microdilution broth (EUCAST); assay type: cell-based; settings: 24h incubation; for MIC: Escherichia coli, read-out: MIC EC
[13] = test system: Acinetobacter baumannii DSM 30007 (ATCC 19606); test: Antibacterial microdilution broth (EUCAST); assay type: cell-based; settings: 24h incubation; for MIC: Acinetobacter baumannii, read-out: MIC AB
[14] = test system: Pseudomonas aeruginosa CCM 3955 (ATCC 27853); test: Antibacterial microdilution broth (EUCAST); assay type: cell-based; settings: 72h incubation; for MIC: Pseudomonas aeruginosa, read-out: MIC PA
[15] = test system: Candida albicans CCM 8320 (ATCC 24433); test: Antifungal microdilution broth (EUCAST); settings: for MIC: Candida albicans, 24 h, read-out: MIC CA
[16] = test system: Candida krusei CCM 8271 (ATCC 6258); test: Antifungal microdilution broth (EUCAST); settings: for MIC: Pichia kudriavzevii, 24 h, read-out: MIC CK
[17] = test system: Candida parapsilosis CCM 8260 (ATCC 22019); test: Antifungal microdilution broth (EUCAST); settings: for MIC: Lodderomyces parapsilosis, 24 h, read-out: MIC CP
[18] = test system: Candida tropicalis CCM 8264 (ATCC 750); test: Antifungal microdilution broth (EUCAST); settings: for MIC: Candida tropicalis, 24 h, read-out: MIC CT
[19] = test system: Aspergillus fumigatus ATCC 204305; test: Antifungal microdilution broth (EUCAST); settings: for MIC: Aspergillus fumigatus, ATCC204305, 24 h, read-out: MIC AF
[20] = test system: Aspergillus flavus CCM 8363; test: Antifungal microdilution broth (EUCAST); settings: for MIC: Aspergillus flavus, CCM8363, 24 h, read-out: MIC AFla
[21] = test system: Lichtheimia corymbifera CCM 8077; test: Antifungal microdilution broth (EUCAST); settings: for MIC: Lichtheimia corymbifera, CCM8077, 24 h, read-out: MIC LC
[22] = test system: Trichophyton interdigitale CCM 8377 (ATCC 9533); test: Antifungal microdilution broth (EUCAST); settings: for MIC: Trichophyton interdigitale, 72 h, read-out: MIC TI
[23] = 120 h, Middlebrook 7H9, resazurin after 120 h, read-out: Mtb H37Ra MIC
[24] = Middlebrook 7H9, resazurin after 120 h

Row | SMILES | log k’w [1] | logkw [1] | IC50 [2] [µM] | MIC [3, 23] [µg/mL] | MIC [4] [µg/mL] | MIC [5] [µg/mL] | MIC [6] [µg/mL] | MIC [8] [µM] | MIC [9] [µM] | MIC [10] [µM] | MIC [11] [µM] | MIC [12] [µM] | MIC [13] [µM] | MIC [14] [µM] | melting point [°C] | MIC [15] [µM] | MIC [16] [µM] | MIC [17] [µM] | MIC [18] [µM] | MIC [19] [µM] | further results
1 | Cc1cc(C(=O)Nc2nccs2)cc(Cl)n1 [Compound 7a] | 2.319 | 2.319 | > 250 | ≥ 500 | ≥ 500 | ≥ 500 | ≥ 500 | > 500 | > 500 | > 500 | > 500 | > 500 | > 500 | > 500 | 198.6 | > 125 | > 125 | > 125 | > 125 | > 125 | MIC ([7]; resazurin after 96 h): ≥ 500 µg/mL; MIC [20]: > 125 µM; MIC [21]: > 125 µM; MIC [22]: > 125 µM
2 | O=C(Nc1nccs1)c1cnc2ccccc2n1 [Compound 10a] | 2.530 | 2.53 | > 50 | ≥ 250 | ≥ 250 | ≥ 250 | ≥ 250 | > 500 | > 500 | > 500 | > 500 | > 500 | > 500 | > 500 | 251.4 | > 500 | > 500 | > 500 | > 500 | > 500 | MIC ([7]; resazurin after 96 h): 7.81 µg/mL (≈ 30.5 µM); MIC [20]: > 500 µM; MIC [21]: > 500 µM; MIC [22]: > 500 µM
3 | O=C(Nc1nc(-c2ccccc2)cs1)c1ccccn1 [Compound 11a] | 3.102 | 3.102 | > 100 | 3.91 to 7.81 | ≥ 500 | ≥ 500 | ≥ 500 | > 500 | > 500 | > 500 | > 500 | > 500 | > 500 | > 500 | 128 to 130 | > 500 | > 500 | > 500 | > 500 | > 500 | SI [2]: >7.2; Mtb H37Ra MIC [3, 24]: 3.91 µg/mL; MIC ([3]; recalculated from µg/mL, read-out: MICH37Ra): 13.9 µM; MIC ([7]; 96 h): 3.91 µg/mL (≈ 13.9 µM); MIC [20]: > 500 µM; MIC [21]: > 500 µM; MIC [22]: > 500 µM
4 | O=C(Nc1nc(-c2ccccc2)co1)c1ccccn1 [Compound 11b] | 2.038 | 2.038 | 883 | 3.91 to 7.81 | 125 (≈ 471 µM) | 31.2 (≈ 118 µM) | 31.2 (≈ 118 µM) | 500 (≈ 133 µg/mL) | 500 (≈ 133 µg/mL) | 125 (≈ 33.2 µg/mL) | > 500 | > 500 | > 500 | > 500 | 107 to 109 | 500 (≈ 133 µg/mL) | 500 (≈ 133 µg/mL) | 500 (≈ 133 µg/mL) | 500 (≈ 133 µg/mL) | 500 (≈ 133 µg/mL) | SI [2]: >67.8; Mtb H37Ra MIC [3, 24]: 3.91 µg/mL; MIC ([3]; read-out: MICH37Ra, recalculated from µg/mL): 14.7 µM; MIC ([7]; 96 h): 3.91 µg/mL (≈ 14.7 µM); MIC [20]: 500 µM (≈ 133 µg/mL); MIC [21]: 125 µM (≈ 33.2 µg/mL); MIC [22]: 62.5 µM (≈ 16.6 µg/mL)
5 | Cc1cncc(C(=O)Nc2nc(-c3ccccc3)co2)c1 [Compound 14b] | 1.478 | 1.478 | > 100 | ≥ 250 | ≥ 250 | ≥ 250 | ≥ 250 | 250 (≈ 69.8 µg/mL) | 250 (≈ 69.8 µg/mL) | 250 (≈ 69.8 µg/mL) | > 250 | > 250 | > 250 | > 250 | 258.6 | > 500 | > 500 | > 500 | > 500 | > 500 | MIC ([7]; resazurin after 96 h): ≥ 250 µg/mL; MIC [20]: > 500 µM; MIC [21]: > 500 µM; MIC [22]: > 500 µM
6 | O=C(Nc1nc(-c2ccccc2)co1)c1cnccn1 [Compound 17b] | 1.306 | 1.306 | > 1000 | 15.6 | ≥ 500 | 125 (≈ 469 µM) | ≥ 500 | > 500 | > 500 | > 500 | > 500 | > 500 | > 500 | > 500 | 140 to 142 | > 500 | > 500 | > 500 | > 500 | > 500 | MIC ([7]; 96 h): 15.6 µg/mL (≈ 58.7 µM); MIC [20]: > 500 µM; MIC [21]: > 500 µM; MIC [22]: > 500 µM
7 | O=C(Nc1nc(-c2ccccc2)co1)c1cnc(Cl)cn1 [Compound 18b] | 2.073 | 2.073 | > 100 | 15.6 | ≥ 500 | 125 (≈ 416 µM) | 62.5 (≈ 208 µM) | – | – | – | – | – | – | – | 203 to 207 | – | – | – | – | – | MIC ([7]; 96 h): 15.6 µg/mL (≈ 52 µM); MIC SA [8]: insoluble; MIC MRSA [9]: insoluble; MIC SE [10]: insoluble; MIC EF [11]: insoluble; MIC EC [12]: insoluble; MIC AB [13]: insoluble; MIC PA [14]: insoluble; MIC CA ([15]; 24h incubation): insoluble; MIC CK ([16]; 24h incubation): insoluble; MIC CP ([17]; 24h incubation): insoluble; MIC CT ([18]; 24h incubation): insoluble; MIC AF ([19]; 24h incubation): insoluble; MIC AFla ([20]; 24h incubation): insoluble; MIC LC ([21]; 24h incubation): insoluble; MIC TI ([22]; 72h incubation): insoluble
8 | O=C(Nc1nc(-c2ccccc2)co1)c1ccccc1 [Compound 20b] | 2.090 | – | 330 | 62.5 | 125 (≈ 473 µM) | 31.2 (≈ 118 µM) | 31.2 (≈ 118 µM) | 250 (≈ 66.1 µg/mL) | 500 (≈ 132 µg/mL) | 250 (≈ 66.1 µg/mL) | > 500 | > 500 | 500 (≈ 132 µg/mL) | > 500 | 143 to 145 | 500 (≈ 132 µg/mL) | 500 (≈ 132 µg/mL) | 500 (≈ 132 µg/mL) | 500 (≈ 132 µg/mL) | 500 (≈ 132 µg/mL) | MIC ([7]; resazurin after 96 h): 31.2 µg/mL (≈ 118 µM); MIC [20]: 500 µM (≈ 132 µg/mL); MIC [21]: 500 µM (≈ 132 µg/mL); MIC [22]: 250 µM (≈ 66.1 µg/mL)
